Source: PubChem BioAssay (NCI)
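1) Cells in 96-well plates. 2) Compound, 48 h, 5 concentrations. 3) Linear interpolation between surrounding doses. 4) Unreached endpoint = highest concentration. Definition used: TGI = concentration required for complete inhibition of growth.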

How the values were obtained:
Assay in all cases: inhibition of tumour cell growth, NCI panel, 48 h
786-0 renal = system: 786-0 renal
A498 renal = system: A498 renal
A549 NSCLC = system: A549 NSCLC
ACHN renal = system: ACHN renal
CAKI-1 renal = system: CAKI-1 renal
CCRF-CEM leukemia = system: CCRF-CEM leukemia
COLO 205 colon = system: COLO 205 colon
DLD-1 colon = system: DLD-1 colon
DMS 114 small cell lung = system: DMS 114 small cell lung
DMS 273 small cell lung = system: DMS 273 small cell lung
EKVX NSCLC = system: EKVX NSCLC
HCC-2998 colon = system: HCC-2998 colon
HCT-116 colon = system: HCT-116 colon
HCT-15 colon = system: HCT-15 colon
HL-60(TB) leukemia = system: HL-60(TB) leukemia
HOP-18 NSCLC = system: HOP-18 NSCLC
HOP-62 NSCLC = system: HOP-62 NSCLC
HOP-92 NSCLC = system: HOP-92 NSCLC
HT29 colon = system: HT29 colon
IGROV1 ovarian = system: IGROV1 ovarian
K-562 leukemia = system: K-562 leukemia
KM12 colon = system: KM12 colon
KM20L2 colon = system: KM20L2 colon
LOX IMVI melanoma = system: LOX IMVI melanoma
LXFL 529 NSCLC = system: LXFL 529 NSCLC
M14 melanoma = system: M14 melanoma
M19-MEL melanoma = system: M19-MEL melanoma
MALME-3M melanoma = system: MALME-3M melanoma
MOLT-4 leukemia = system: MOLT-4 leukemia
NCI-H226 lung = system: NCI-H226 lung
NCI-H23 lung = system: NCI-H23 lung
NCI-H460 lung = system: NCI-H460 lung
OVCAR-3 ovarian = system: OVCAR-3 ovarian
OVCAR-4 ovarian = system: OVCAR-4 ovarian
OVCAR-5 ovarian = system: OVCAR-5 ovarian
OVCAR-8 ovarian = system: OVCAR-8 ovarian
RPMI-8226 leukemia = system: RPMI-8226 leukemia
RXF 393 renal = system: RXF 393 renal
SF-268 CNS = system: SF-268 CNS
SF-295 CNS = system: SF-295 CNS
SF-539 CNS = system: SF-539 CNS
SK-MEL-2 melanoma = system: SK-MEL-2 melanoma
SK-MEL-28 melanoma = system: SK-MEL-28 melanoma
SK-MEL-5 melanoma = system: SK-MEL-5 melanoma
SK-OV-3 ovarian = system: SK-OV-3 ovarian
SN12C renal = system: SN12C renal
SNB-19 CNS = system: SNB-19 CNS
SNB-75 CNS = system: SNB-75 CNS
SNB-78 CNS = system: SNB-78 CNS
SR leukemia = system: SR leukemia
SW-620 colon = system: SW-620 colon
TK-10 renal = system: TK-10 renal
U251 CNS = system: U251 CNS
UACC-257 melanoma = system: UACC-257 melanoma
UACC-62 melanoma = system: UACC-62 melanoma
UO-31 renal = system: UO-31 renal
XF 498 CNS = system: XF 498 CNS
NCI-H522 lung = system: NCI-H522 lung

SMILES: CC(CC[C@@H](C)C1CCC2[C@@H]3CC(O)C4CC(O)[C@@H](O)C[C@]4(C)C3CC[C@@]21C)C(C)(C)C (stereo not given in full)
- TGI (786-0 renal): > 100 µM
- TGI (A498 renal): > 100 µM
- TGI (A549 NSCLC): > 100 µM
- TGI (ACHN renal): > 100 µM
- TGI (CAKI-1 renal): > 100 µM
- TGI (CCRF-CEM leukemia): > 100 µM
- TGI (COLO 205 colon): > 100 µM
- TGI (DLD-1 colon): > 100 µM
- TGI (DMS 114 small cell lung): > 100 µM
- TGI (DMS 273 small cell lung): > 100 µM
- TGI (EKVX NSCLC): > 100 µM
- TGI (HCC-2998 colon): > 100 µM
- TGI (HCT-116 colon): > 100 µM
- TGI (HCT-15 colon): > 100 µM
- TGI (HL-60(TB) leukemia): > 100 µM
- TGI (HOP-18 NSCLC): > 100 µM
- TGI (HOP-62 NSCLC): > 100 µM
- TGI (HOP-92 NSCLC): > 100 µM
- TGI (HT29 colon): > 100 µM
- TGI (IGROV1 ovarian): > 100 µM
- TGI (K-562 leukemia): > 100 µM
- TGI (KM12 colon): > 100 µM
- TGI (KM20L2 colon): > 100 µM
- TGI (LOX IMVI melanoma): > 100 µM
- TGI (LXFL 529 NSCLC): > 100 µM
- TGI (M14 melanoma): > 100 µM
- TGI (M19-MEL melanoma): > 100 µM
- TGI (MALME-3M melanoma): > 100 µM
- TGI (MOLT-4 leukemia): > 100 µM
- TGI (NCI-H226 lung): > 100 µM
- TGI (NCI-H23 lung): > 100 µM
- TGI (NCI-H460 lung): > 100 µM
- TGI (OVCAR-3 ovarian): > 100 µM
- TGI (OVCAR-4 ovarian): > 100 µM
- TGI (OVCAR-5 ovarian): > 100 µM
- TGI (OVCAR-8 ovarian): > 100 µM
- TGI (RPMI-8226 leukemia): > 100 µM
- TGI (RXF 393 renal): > 100 µM
- TGI (SF-268 CNS): > 100 µM
- TGI (SF-295 CNS): > 100 µM
- TGI (SF-539 CNS): > 100 µM
- TGI (SK-MEL-2 melanoma): > 100 µM
- TGI (SK-MEL-28 melanoma): > 100 µM
- TGI (SK-MEL-5 melanoma): > 100 µM
- TGI (SK-OV-3 ovarian): > 100 µM
- TGI (SN12C renal): > 100 µM
- TGI (SNB-19 CNS): > 100 µM
- TGI (SNB-75 CNS): > 100 µM
- TGI (SNB-78 CNS): > 100 µM
- TGI (SR leukemia): > 100 µM
- TGI (SW-620 colon): > 100 µM
- TGI (TK-10 renal): > 100 µM
- TGI (U251 CNS): > 100 µM
- TGI (UACC-257 melanoma): > 100 µM
- TGI (UACC-62 melanoma): > 100 µM
- TGI (UO-31 renal): > 100 µM
- TGI (XF 498 CNS): > 100 µM

SMILES: CC1CC(c2ccc([N+](=O)[O-])cc2)=Nc2ccccc2S1 (stereo not given)
- TGI (786-0 renal): 29.5 µM
- TGI (A498 renal): 36.1 µM
- TGI (A549 NSCLC): 60.1 µM
- TGI (ACHN renal): 44.2 µM
- TGI (CAKI-1 renal): 83.5 µM
- TGI (CCRF-CEM leukemia): 39.1 µM
- TGI (COLO 205 colon): 55.1 µM
- TGI (DLD-1 colon): 25.5 µM
- TGI (DMS 114 small cell lung): 36.6 µM
- TGI (DMS 273 small cell lung): 41.7 µM
- TGI (EKVX NSCLC): 48.6 µM
- TGI (HCC-2998 colon): 38.1 µM
- TGI (HCT-116 colon): 3.56 µM
- TGI (HCT-15 colon): 29.3 µM
- TGI (HL-60(TB) leukemia): 36.4 µM
- TGI (HOP-18 NSCLC): > 100 µM
- TGI (HOP-62 NSCLC): > 100 µM
- TGI (HOP-92 NSCLC): 89.7 µM
- TGI (HT29 colon): 26.3 µM
- TGI (IGROV1 ovarian): 35.4 µM
- TGI (K-562 leukemia): 40.3 µM
- TGI (KM12 colon): 25.3 µM
- TGI (KM20L2 colon): 36.6 µM
- TGI (LOX IMVI melanoma): 20.6 µM
- TGI (LXFL 529 NSCLC): 26 µM
- TGI (M14 melanoma): 27.2 µM
- TGI (M19-MEL melanoma): 26.7 µM
- TGI (MALME-3M melanoma): > 100 µM
- TGI (MOLT-4 leukemia): 63.6 µM
- TGI (NCI-H226 lung): 46.6 µM
- TGI (NCI-H23 lung): 34.2 µM
- TGI (NCI-H460 lung): > 100 µM
- TGI (NCI-H522 lung): 41.9 µM
- TGI (OVCAR-3 ovarian): 23.7 µM
- TGI (OVCAR-4 ovarian): 43.9 µM
- TGI (OVCAR-5 ovarian): 76.1 µM
- TGI (OVCAR-8 ovarian): > 100 µM
- TGI (RPMI-8226 leukemia): 7.21 µM
- TGI (RXF 393 renal): 32 µM
- TGI (SF-268 CNS): 38.9 µM
- TGI (SF-295 CNS): 45.3 µM
- TGI (SF-539 CNS): 32.9 µM
- TGI (SK-MEL-28 melanoma): 32.2 µM
- TGI (SK-MEL-5 melanoma): 42.4 µM
- TGI (SK-OV-3 ovarian): 31 µM
- TGI (SN12C renal): 35.1 µM
- TGI (SNB-19 CNS): 39.5 µM
- TGI (SNB-75 CNS): > 100 µM
- TGI (SNB-78 CNS): > 100 µM
- TGI (SR leukemia): 24.9 µM
- TGI (SW-620 colon): 29.6 µM
- TGI (TK-10 renal): 76.1 µM
- TGI (U251 CNS): 28.4 µM
- TGI (UACC-257 melanoma): 35.9 µM
- TGI (UACC-62 melanoma): 28.8 µM
- TGI (UO-31 renal): 24.9 µM
- TGI (XF 498 CNS): 70.7 µM

SMILES: O=C1C2C=CC(n3[nH]c(=O)n(Cc4ccccc4)c3=O)CC2C(=O)N1c1cccc(Cl)c1 (stereo not given)
- TGI (786-0 renal): > 100 µM
- TGI (A498 renal): > 100 µM
- TGI (A549 NSCLC): > 100 µM
- TGI (ACHN renal): > 100 µM
- TGI (CAKI-1 renal): > 100 µM
- TGI (CCRF-CEM leukemia): > 100 µM
- TGI (COLO 205 colon): > 100 µM
- TGI (DLD-1 colon): > 100 µM
- TGI (DMS 114 small cell lung): > 100 µM
- TGI (DMS 273 small cell lung): > 100 µM
- TGI (EKVX NSCLC): > 100 µM
- TGI (HCC-2998 colon): > 100 µM
- TGI (HCT-116 colon): > 100 µM
- TGI (HCT-15 colon): > 100 µM
- TGI (HL-60(TB) leukemia): > 100 µM
- TGI (HOP-18 NSCLC): > 100 µM
- TGI (HOP-62 NSCLC): > 100 µM
- TGI (HOP-92 NSCLC): > 100 µM
- TGI (HT29 colon): > 100 µM
- TGI (IGROV1 ovarian): > 100 µM
- TGI (K-562 leukemia): > 100 µM
- TGI (KM12 colon): > 100 µM
- TGI (KM20L2 colon): > 100 µM
- TGI (LOX IMVI melanoma): > 100 µM
- TGI (LXFL 529 NSCLC): > 100 µM
- TGI (M14 melanoma): > 100 µM
- TGI (M19-MEL melanoma): > 100 µM
- TGI (MALME-3M melanoma): > 100 µM
- TGI (NCI-H226 lung): > 100 µM
- TGI (NCI-H23 lung): > 100 µM
- TGI (NCI-H460 lung): > 100 µM
- TGI (NCI-H522 lung): > 100 µM
- TGI (OVCAR-3 ovarian): > 100 µM
- TGI (OVCAR-4 ovarian): > 100 µM
- TGI (OVCAR-5 ovarian): > 100 µM
- TGI (OVCAR-8 ovarian): > 100 µM
- TGI (RXF 393 renal): > 100 µM
- TGI (SF-268 CNS): > 100 µM
- TGI (SF-295 CNS): > 100 µM
- TGI (SF-539 CNS): > 100 µM
- TGI (SK-MEL-2 melanoma): > 100 µM
- TGI (SK-MEL-28 melanoma): > 100 µM
- TGI (SK-MEL-5 melanoma): > 100 µM
- TGI (SK-OV-3 ovarian): > 100 µM
- TGI (SN12C renal): > 100 µM
- TGI (SNB-19 CNS): > 100 µM
- TGI (SNB-75 CNS): > 100 µM
- TGI (SNB-78 CNS): > 100 µM
- TGI (SR leukemia): > 100 µM
- TGI (SW-620 colon): > 100 µM
- TGI (TK-10 renal): > 100 µM
- TGI (U251 CNS): > 100 µM
- TGI (UACC-257 melanoma): > 100 µM
- TGI (UACC-62 melanoma): > 100 µM
- TGI (UO-31 renal): > 100 µM
- TGI (XF 498 CNS): > 100 µM
